Legend:
[1] = target: T1, SIK1 kinase (aa1-303, Thermo Fisher) (Homo sapiens, UniProt P57059); experiment: Biochemical activities determination for SIK1 protein (TR-FRET); details: 110 uM ATP, 0.5 μM STK1 substrate
T1 construct: SIK1 kinase (aa1-303, Thermo Fisher); purchased Thermo Fisher
Summary of the method: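 TR-FRET kinase assay with SIK1 (aa1-303), 110 uM ATP, 0.5 μM STK1 substrate and 0-10 μM compound in Tris pH 7.5 with MgCl2, EGTA, DTT, Triton X-100. Enzyme preincubated with compound 60 min, reaction 180 min at room temperature; 665/620 nm ratio after overnight detection; IC50 from four-parameter logistic fit.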

[2] = target: T2, SIK2 kinase (full length, Thermo Fisher) (Homo sapiens, UniProt Q9H0K1); experiment: Biochemical activities determination for SIK2 protein (TR-FRET); details: 80 uM ATP, 0.5 μM substrate
T2 construct: SIK2 kinase (full length, Thermo Fisher); purchased Thermo Fisher
Summary of the method: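 Full-length SIK2 preincubated 60 min with 0–10 μM compound, then reacted 180 min at room temperature with 80 uM ATP and 0.5 μM biotinylated substrate (pH 7.5 Tris/MgCl2 buffer). Phosphorylation detected by TR-FRET (665/620 nm ratio, cryptate antibody/streptavidin-XL665) after overnight incubation; IC50 from four-parameter logistic fit.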

[3] = target: T3, SIK3 kinase (aa59-365, Thermo Fisher) (Homo sapiens, UniProt Q9Y2K2); experiment: Biochemical activities determination for SIK3 protein (TR-FRET); details: 125 uM ATP, 0.5 μM STK1 substrate
T3 construct: SIK3 kinase (aa59-365, Thermo Fisher); purchased Thermo Fisher
Summary of the method: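 SIK3 (aa59-365) was preincubated with compound (0-10 μM) for 60 min at room temperature in Tris buffer pH 7.5. The reaction was then started with 125 uM ATP and 0.5 μM STK1 substrate and run 180 min at room temperature. Phospho-substrate was detected by HTRF (665/620 nm ratio), and IC50 came from a four-parameter logistic fit.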

T3 sequence (Q9Y2K2 59-365): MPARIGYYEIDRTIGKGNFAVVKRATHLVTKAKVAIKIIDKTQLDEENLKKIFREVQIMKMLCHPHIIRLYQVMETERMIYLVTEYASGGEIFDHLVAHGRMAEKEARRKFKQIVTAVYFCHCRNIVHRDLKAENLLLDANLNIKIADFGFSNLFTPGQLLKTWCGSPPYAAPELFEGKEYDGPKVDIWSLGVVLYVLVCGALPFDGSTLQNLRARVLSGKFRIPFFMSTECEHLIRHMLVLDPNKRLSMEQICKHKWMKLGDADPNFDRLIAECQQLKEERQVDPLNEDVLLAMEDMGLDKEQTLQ
T2 sequence (Q9H0K1 whole entry): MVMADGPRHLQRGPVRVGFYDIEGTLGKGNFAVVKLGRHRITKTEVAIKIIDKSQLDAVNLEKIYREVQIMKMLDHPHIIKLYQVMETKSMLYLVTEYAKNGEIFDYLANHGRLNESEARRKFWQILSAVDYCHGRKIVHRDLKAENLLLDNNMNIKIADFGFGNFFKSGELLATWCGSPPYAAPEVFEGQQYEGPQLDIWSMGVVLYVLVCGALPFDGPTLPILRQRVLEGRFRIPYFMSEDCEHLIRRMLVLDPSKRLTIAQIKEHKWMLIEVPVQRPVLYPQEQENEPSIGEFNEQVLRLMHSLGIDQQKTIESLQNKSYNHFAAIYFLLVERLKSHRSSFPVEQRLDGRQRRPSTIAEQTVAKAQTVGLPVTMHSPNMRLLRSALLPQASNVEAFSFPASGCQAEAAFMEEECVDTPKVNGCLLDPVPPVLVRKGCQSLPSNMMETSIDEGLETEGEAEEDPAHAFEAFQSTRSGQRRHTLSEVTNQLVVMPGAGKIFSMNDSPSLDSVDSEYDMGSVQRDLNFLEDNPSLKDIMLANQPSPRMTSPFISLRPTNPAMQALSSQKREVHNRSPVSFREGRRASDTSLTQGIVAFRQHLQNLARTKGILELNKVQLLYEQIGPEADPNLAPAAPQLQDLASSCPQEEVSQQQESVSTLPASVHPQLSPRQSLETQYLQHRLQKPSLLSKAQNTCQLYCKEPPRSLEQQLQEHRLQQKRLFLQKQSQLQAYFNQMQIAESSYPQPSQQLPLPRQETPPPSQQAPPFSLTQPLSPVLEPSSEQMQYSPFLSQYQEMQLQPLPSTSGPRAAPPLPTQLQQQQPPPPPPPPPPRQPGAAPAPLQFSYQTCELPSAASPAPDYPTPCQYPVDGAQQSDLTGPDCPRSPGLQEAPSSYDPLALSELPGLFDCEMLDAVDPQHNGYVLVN
T1 sequence (P57059 1-303): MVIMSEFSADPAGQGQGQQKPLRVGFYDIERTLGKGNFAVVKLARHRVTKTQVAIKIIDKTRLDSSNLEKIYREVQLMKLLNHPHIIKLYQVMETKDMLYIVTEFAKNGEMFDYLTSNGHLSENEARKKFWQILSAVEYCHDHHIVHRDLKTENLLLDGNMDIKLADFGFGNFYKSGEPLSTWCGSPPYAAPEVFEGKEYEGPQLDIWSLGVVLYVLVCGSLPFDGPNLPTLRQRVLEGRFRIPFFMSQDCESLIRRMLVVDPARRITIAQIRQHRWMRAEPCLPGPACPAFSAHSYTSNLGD

SMILES: CNc1cc(-c2coc3cc(OCCN4CCCC4)ccc23)cc(OC(F)F)c1C(=O)NC1CC1 [Compound 122, N-cyclopropyl-2-(difluoromethoxy)-6-(methylamino)-4-(6-(2-(pyrrolidin-1-yl)ethoxy)benzofuran-3-yl)benzamide]
- IC50 [1]: 3960 nM
- IC50 [2]: 45 nM
- IC50 [3]: 158 nM

SMILES: O=C(NC1CC1)c1c(OC(F)F)cc(-c2coc3cc(OCCN4CCCC4)ccc23)cc1OC(F)F [Compound 123, N-cyclopropyl-2,6-bis(difluoromethoxy)-4-(6-(2-(pyrrolidin-1-yl)ethoxy)benzofuran-3-yl)benzamide]
- IC50 [1]: 8000 nM
- IC50 [2]: 114 nM
- IC50 [3]: 506 nM

SMILES: COc1cc(-c2coc3cc(OCCN4CCCC4)ccc23)cc(OC(F)F)c1C(=O)N[C@H]1CCCC[C@H]1O [Compound 125, 2-(difluoromethoxy)-N-((1S,2R)-2-hydroxycyclohexyl)-6-methoxy-4-(6-(2-(pyrrolidin-1-yl)ethoxy)benzofuran-3-yl)benzamide]
- IC50 [1]: > 10000 nM
- IC50 [2]: 385 nM
- IC50 [3]: 2490 nM

SMILES: COc1cc(-c2coc3cc(OCCN4CCCC4)ccc23)cc(OC(F)F)c1C(=O)N[C@H]1CCC[C@H]1O [Compound 126, 2-(difluoromethoxy)-N-((1S,2R)-2-hydroxycyclopentyl)-6-methoxy-4-(6-(2-(pyrrolidin-1-yl)ethoxy)benzofuran-3-yl)benzamide]
- IC50 [1]: > 10000 nM
- IC50 [2]: 224 nM
- IC50 [3]: 878 nM

SMILES: COc1cc(-c2coc3cc(OCCN4CCCC4)ccc23)cc(OC(F)F)c1C(=O)NC1CCCCC1 [Compound 127, N-cyclohexyl-2-(difluoromethoxy)-6-methoxy-4-(6-(2-(pyrrolidin-1-yl)ethoxy)benzofuran-3-yl)benzamide]
- IC50 [1]: > 10000 nM
- IC50 [2]: 619 nM
- IC50 [3]: 2900 nM

SMILES: COc1cc(-c2coc3cc(OCCN4CCCC4)ccc23)cc(OC(F)F)c1C(=O)NC1CCCC1 [Compound 128, N-cyclopentyl-2-(difluoromethoxy)-6-methoxy-4-(6-(2-(pyrrolidin-1-yl)ethoxy)benzofuran-3-yl)benzamide]
- IC50 [1]: > 10000 nM
- IC50 [2]: 156 nM
- IC50 [3]: 812 nM

SMILES: COc1cc(-c2coc3cc(OCCN4CCCC4)ccc23)cc(OC(F)F)c1C(=O)NC1CCC1 [Compound 129, N-cyclobutyl-2-(difluoromethoxy)-6-methoxy-4-(6-(2-(pyrrolidin-1-yl)ethoxy)benzofuran-3-yl)benzamide]
- IC50 [1]: > 10000 nM
- IC50 [2]: 146 nM
- IC50 [3]: 683 nM

SMILES: COc1cc(-c2coc3cc(-c4cnn(C)c4)ccc23)cc(OC(F)F)c1C(=O)NC1CC1 [Compound 132, N-cyclopropyl-2-(difluoromethoxy)-6-methoxy-4-(6-(1-methyl-1H-pyrazol-4-yl)benzofuran-3-yl)benzamide]
- IC50 [1]: 124 nM
- IC50 [2]: 13 nM
- IC50 [3]: 15 nM

SMILES: COc1cc(-c2coc3cc(-c4ccc(C)nn4)ccc23)cc(OC(F)F)c1C(=O)NC1CC1 [Compound 133, N-cyclopropyl-2-(difluoromethoxy)-6-methoxy-4-(6-(6-methylpyridazin-3-yl)benzofuran-3-yl)benzamide]
- IC50 [1]: > 10000 nM
- IC50 [2]: 199 nM
- IC50 [3]: 199 nM

SMILES: NC1CCN(c2cccc3ccc(-c4coc5cc(OCCN6CCOCC6)ccc45)nc23)CC1 [Compound 134, 1-(2-(6-(2-morpholinoethoxy)benzofuran-3-yl)quinolin-8-yl) piperidin-4-amine]
- IC50 [1]: 958 nM
- IC50 [2]: 66 nM
- IC50 [3]: 156 nM

SMILES: COc1cc(-c2coc3cc(-c4cnn(C)c4)ccc23)cc2c1C(=O)N(CC(F)(F)F)CC2 [Example 1, 8-methoxy-6-(6-(1-methyl-1H-pyrazol-4-yl)benzofuran-3-yl)-2-(2,2,2-trifluoroethyl)-3,4-dihydroisoquinolin-1 (2H)-one]
- IC50 [1]: 303 nM
- IC50 [2]: 10 nM
- IC50 [3]: 19 nM

SMILES: CCn1cc(-c2ccc3c(-c4cc5c(c(OC)c4)C(=O)N(CC(F)(F)F)CC5)coc3c2)cn1 [Example 2, 6-(6-(1-ethyl-1H-pyrazol-4-yl)benzofuran-3-yl)-8-methoxy-2-(2,2,2-trifluoroethyl)-3,4-dihydroisoquinolin-1 (2H)-one]
- IC50 [1]: 375 nM
- IC50 [2]: 15 nM
- IC50 [3]: 28 nM

SMILES: COc1cc(-c2coc3cc(-c4cnn(C(C)C)c4)ccc23)cc2c1C(=O)N(CC(F)(F)F)CC2 [Example 3, 6-(6-(1-isopropyl-1H-pyrazol-4-yl)benzofuran-3-yl)-8-methoxy-2-(2,2,2-trifluoroethyl)-3,4-dihydroisoquinolin-1 (2H)-one]
- IC50 [1]: 476 nM
- IC50 [2]: 28 nM
- IC50 [3]: 42 nM

SMILES: COc1cc(-c2coc3cc(-c4cnn(C5CC5)c4)ccc23)cc2c1C(=O)N(CC(F)(F)F)CC2 [Example 4, 6-(6-(1-cyclopropyl-1H-pyrazol-4-yl)benzofuran-3-yl)-8-methoxy-2-(2,2,2-trifluoroethyl)-3,4-dihydroisoquinolin-1 (2H)-one]
- IC50 [1]: 728 nM
- IC50 [2]: 37 nM
- IC50 [3]: 53 nM

SMILES: COc1cc(-c2coc3cc(-c4cc(C)n[nH]4)ccc23)cc2c1C(=O)N(CC(F)(F)F)CC2 [Example 5, 8-methoxy-6-(6-(3-methyl-1H-pyrazol-5-yl)benzofuran-3-yl)-2-(2,2,2-trifluoroethyl)-3,4-dihydroisoquinolin-1 (2H)-one]
- IC50 [1]: 538 nM
- IC50 [2]: 33 nM
- IC50 [3]: 41 nM

SMILES: CCOc1cncc(-c2ccc3c(-c4cc5c(c(OC)c4)C(=O)N(CC(F)(F)F)CC5)coc3c2)c1 [Example 6, 6-(6-(5-ethoxypyridin-3-yl)benzofuran-3-yl)-8-methoxy-2-(2,2,2-trifluoroethyl)-3,4-dihydroisoquinolin-1 (2H)-one]
- IC50 [1]: > 10000 nM
- IC50 [2]: 7460 nM
- IC50 [3]: 1430 nM

SMILES: COc1cc(-c2coc3cc(-c4cn(C)cn4)ccc23)cc2c1C(=O)N(CC(F)(F)F)CC2 [Example 7, 8-methoxy-6-(6-(1-methyl-1H-imidazol-4-yl)benzofuran-3-yl)-2-(2,2,2-trifluoroethyl)-3,4-dihydroisoquinolin-1 (2H)-one]
- IC50 [1]: 671 nM
- IC50 [2]: 14 nM
- IC50 [3]: 60 nM

SMILES: COc1cc(-c2coc3cc(-c4ccc(C)nn4)ccc23)cc2c1C(=O)N(CC(F)(F)F)CC2 [Example 8, 8-methoxy-6-(6-(6-methylpyridazin-3-yl)benzofuran-3-yl)-2-(2,2,2-trifluoroethyl)-3,4-dihydroisoquinolin-1 (2H)-one]
- IC50 [1]: > 10000 nM
- IC50 [2]: 197 nM
- IC50 [3]: 304 nM

SMILES: COc1ccc(-c2ccc3c(-c4cc5c(c(OC)c4)C(=O)N(CC(F)(F)F)CC5)coc3c2)cn1 [Example 9, 8-methoxy-6-(6-(6-methoxypyridin-3-yl)benzofuran-3-yl)-2-(2,2,2-trifluoroethyl)-3,4-dihydroisoquinolin-1 (2H)-one]
- IC50 [1]: > 10000 nM
- IC50 [2]: 296 nM
- IC50 [3]: 334 nM

SMILES: COc1cc(-c2coc3cc(-c4cnnc(C)c4)ccc23)cc2c1C(=O)N(CC(F)(F)F)CC2 [Example 10, 8-methoxy-6-(6-(6-methylpyridazin-4-yl)benzofuran-3-yl)-2-(2,2,2-trifluoroethyl)-3,4-dihydroisoquinolin-1 (2H)-one]
- IC50 [1]: > 10000 nM
- IC50 [2]: 418 nM
- IC50 [3]: 187 nM

SMILES: COc1cc(-c2coc3cc(-c4cnn(C)c4)cc(F)c23)cc2c1C(=O)N(CC(F)(F)F)CC2 [Example 11, 6-(4-fluoro-6-(1-methyl-1H-pyrazol-4-yl)benzofuran-3-yl)-8-methoxy-2-(2,2,2-trifluoroethyl)-3,4-dihydroisoquinolin-1 (2H)-one]
- IC50 [1]: 1550 nM
- IC50 [2]: 49 nM
- IC50 [3]: 155 nM

SMILES: COc1cc(-c2coc3cc(-c4cnn(C)c4)c(F)cc23)cc2c1C(=O)N(CC(F)(F)F)CC2 [Example 12, 6-(5-fluoro-6-(1-methyl-1H-pyrazol-4-yl)benzofuran-3-yl)-8-methoxy-2-(2,2,2-trifluoroethyl)-3,4-dihydroisoquinolin-1 (2H)-one]
- IC50 [1]: 2280 nM
- IC50 [2]: 59 nM
- IC50 [3]: 186 nM

SMILES: Cn1cc(-c2ccc3c(-c4cc5c(c(OC(F)F)c4)C(=O)N(CC(F)(F)F)CC5)coc3c2)cn1 [Example 13, 8-(difluoromethoxy)-6-(6-(1-methyl-1H-pyrazol-4-yl)benzofuran-3-yl)-2-(2,2,2-trifluoroethyl)-3,4-dihydroisoquinolin-1 (2H)-one]
- IC50 [1]: 647 nM
- IC50 [2]: 25 nM
- IC50 [3]: 54 nM

SMILES: Cc1ccc(-c2ccc3c(-c4cc5c(c(OC(F)F)c4)C(=O)N(CC(F)(F)F)CC5)coc3c2)nn1 [Example 14, 8-(difluoromethoxy)-6-(6-(6-methylpyridazin-3-yl)benzofuran-3-yl)-2-(2,2,2-trifluoroethyl)-3,4-dihydroisoquinolin-1 (2H)-one]
- IC50 [1]: > 10000 nM
- IC50 [2]: 310 nM
- IC50 [3]: 329 nM

Reference: US20260085053A1, “BENZOFURAN DERIVATIVES AS SIK INHIBITORS AND THE USE THEREOF” (BEONE MEDICINES I GMBH, priority 2023, published 2026)
